Experimental data taken from paper PMC8675330 (Frontiers in Pharmacology, 2021).
Counter-ions that a name gives are not always drawn. Like-named read-outs stand apart in the source and are kept apart here. Marks after values point to notes of the source that are not given here.

Key:
[1] = design: method as in Kreilgaard et al., 2008; details: single subcutaneous injection, three doses (escitalopram 0.240-3.90 mg/kg; paroxetine 0.270-4.40 mg/kg); ref Kreilgaard et al., 2008; cited from earlier work
[2] = Solubility of escitalopram and paroxetine in liquid lipids; assay type: physicochemical; details: 24 h stirring at 25°C, n = 3, mean ± SD; for solubility at 24 h: oil or lipid, thermodynamic from solid
Description: Briefly, 0.5 g of solid lipid Precirol® ATO 5 was melted in a controlled temperature water bath at 65°C. […] Regarding liquid lipids (oleic acid, Labrasol®, Labrafac™ PG, Lauroglycol™ 90, and Miglyol® 812 N), both drugs were dispersed in screw-capped tubes with the liquid compounds (0.5 ml each) and kept under mechanical stirring for 24 h at 25°C. […] An aliquot of the supernatant was diluted with the mobile phase, filtered through a 0.22-µm membrane, and analyzed. […] The HPLC-DAD apparatus and data acquisition were controlled by using Lab Solutions Software (Shimadzu Corporation, Tokyo, Japan). […] The mobile phase was composed of 20 mM phosphate buffer (pH 3.8 adjusted with orthophosphoric acid) and acetonitrile (80:20, v/v) pumped at a flow rate of 1.0 ml/min.

[3] = In vivo pharmacokinetics in plasma, brain and lung after IV, IN and IN + BorNLC co-administration; design: species or system CD-1 mice; details: for Cmax / Tmax / Kp / AUC(0-t): CD-1, mouse
Description: Healthy adult CD-1 mice (25–30 g) were acquired from Charles River Laboratories (L’Arbresle, France) and accommodated in a relative humidity of 55 ± 5%, a controlled temperature of 20 ± 2°C, and reversed 12 h light–dark cycles. The studies were always performed in the dark phase (active phase between 08h00 and 20h00). A period of at least 7 days was considered for the animals to become familiarized with the environment. Animals had ad libitum access to food (4RF21, Mucedola®, Italy) and tap water during the entire experiment period.
Before treatment, animals were anesthetized by intraperitoneal administration of a mixture of ketamine (100 mg/kg) and xylazine (10 mg/kg) to keep them immobile during IN or IV administration. Animals were randomly divided into 3 groups (n = 28) and subdivided into 7 time-points (n = 4). […] Briefly, Pluronic F-127 (18%, w/v) and Carbopol 974P (0.2%, w/v) were added to cold water, since the first guarantees the thermoreversible characteristic of the nasal gel ([Swamy and Abbas, 2012]) and the second increases the bioadhesive properties of the gel, thus increasing the residence time in the nasal cavity and improving the central delivery of antidepressant drugs. […] Anesthetized animals were instilled with 14–25 µl (2.38 mg/kg) of the gel with a polyurethane tube (24G x 19 mm) attached to a microliter syringe. Formulation delivery was performed into one of the nostrils, where the tube was inserted about 10 mm deep.
Animals were sacrificed by cervical dislocation and decapitation at 5, 15, 30, 60, 120, 240, and 480 min after administration, and heparinized tubes were used for blood collection. Blood samples were centrifuged at 1,252 g for 10 min at 4°C, and plasma supernatants were analyzed by HPLC-DAD. The mice brain and lungs were quickly removed and gently cleaned with a sterile gauze humidified with saline to remove adherent surface blood. Then, these organs were weighed and homogenized in NaCl 0.9% (3 ml/g of tissue) using a tissue homogenizer with a Teflon® pestle from Thomas Scientific (Swedesboro, NJ, United States).
Briefly, 300 μl of methanol were added to 200 μl of plasma, 200 μl of lung homogenate, or 400 μl of brain homogenate for protein precipitation. After two extractions with 700 μl of n-hexane:alcohol isoamyl (98:2, v/v) mixture, organic phases were evaporated. Last, following reconstitution with 100 μl of a mixture of 20 mM phosphate buffer pH 3.8 and acetonitrile (70:30, v/v), the plasma and lung homogenate samples were transferred to a 0.22-μm Costar® Spin-X® centrifugal filter (Corning, Inc., NY, United States) and centrifuged at 12,100 g for 3 min. All final samples were injected (20 µl) into the HPLC-DAD system, in accordance with the analytical conditions described in section 2.2.1. The detection wavelength to quantify the IS was set at 290 nm.
The remaining pharmacokinetic parameters were estimated by non-compartmental analysis using WinNonlin® version 6.4 software (Certara, Princeton, NJ). Plasma and tissue concentrations below the lower limit of quantification (LLOQ) of the analytical method were considered zero for the pharmacokinetic data analysis.
For both drugs and in all matrices, the area under the concentration–time curve from time zero (AUC) to the time of the last measurable drug concentration (AUCt) was calculated by the linear trapezoidal rule.
To evaluate drug distribution into the brain and lungs after administration, the ratios were determined based on the quotient AUCt(tissue)/AUCt(plasma). The drug targeting efficiency (DTE) was calculated following Eq. 6: DTE(%)=(AUCt(brain)/AUCt(plasma))IN/(AUCt(brain)/AUCt(plasma))IV×100 (6)
Finally, to evaluate the direct drug passage from the nose to the brain, the direct transport percentage (DTP) was determined applying Eq. 7: DTP(%)=AUCt(brain) IN−[(AUCt(brain) IV/AUCt(plasma) IV)×AUCt(plasma) IN]/AUCbrain IN×100 (7)

P-glycoprotein (P-gp) = details: cited from earlier work
[4] = significant first-pass metabolism; no reference given; cited from earlier work
[5] = Lauroglycol 90 (liquid lipid), in Lauroglycol 90
[6] = oleic acid (liquid lipid), in oleic acid
[7] = brain, inhaled or intranasal, 2.38 mg/kg
[8] = lung, inhaled or intranasal, 2.38 mg/kg
[9] = plasma, inhaled or intranasal, 2.38 mg/kg
[10] = inhaled or intranasal, paroxetine, brain, IN free drug, 2.38 mg/kg
[11] = inhaled or intranasal, paroxetine, lung, IN free drug, 2.38 mg/kg
[12] = inhaled or intranasal, paroxetine, plasma, IN free drug, 2.38 mg/kg
[13] = paroxetine, brain, IV free drug, 2.38 mg/kg
[14] = paroxetine, lung, IV free drug, 2.38 mg/kg
[15] = paroxetine, plasma, IV free drug, 2.38 mg/kg
[16] = paroxetine, IN free drug vs IV, 2.38 mg/kg

CN(C)CCC[C@@]1(c2ccc(F)cc2)OCc2cc(C#N)ccc21 [Escitalopram, escitalopram oxalate]
tmax in the plasma [1]: 3.00 to 5.40 min
solubility at 24 h ([2]; Labrafac PG (liquid lipid), in Labrafac PG, n.d. = not detected): 1340 ± 1120 µg/mL
solubility at 24 h ([2]; Labrasol (liquid lipid), in Labrasol): 14700 ± 14000 µg/mL
solubility at 24 h [2, 5]: 6910 ± 130 µg/mL
solubility at 24 h [2, 6]: 840 ± 120 µg/mL
Cmax [3, 7]: 133 ng/g
Tmax [3, 7]: 60 min
Cmax ([3]; brain, iv, 2.38 mg/kg): 511 ng/g
Tmax ([3]; brain, iv, 2.38 mg/kg): 15 min
Kp ([3]; brain/plasma, iv, 2.38 mg/kg, read-out: AUCtbrain/AUCtplasma): 0.871
Kp ([3]; brain/plasma, other: intranasal (IN), 2.38 mg/kg, read-out: AUCtbrain/AUCtplasma): 0.86
Cmax [3, 8]: 2310 ng/g
Tmax [3, 8]: 30 min
Cmax ([3]; lung, iv, 2.38 mg/kg): 1020 ng/g
Tmax ([3]; lung, iv, 2.38 mg/kg): 60 min
Kp ([3]; lung/plasma, iv, 2.38 mg/kg, read-out: AUCtlung/AUCtplasma): 2.45
Kp ([3]; lung/plasma, other: intranasal (IN), 2.38 mg/kg, read-out: AUCtlung/AUCtplasma): 10.6
AUC(0-t) [3, 9]: 507 ng·h/mL
Cmax [3, 9]: 550 ng/mL
Tmax [3, 9]: 5 min
AUC(0-t) ([3]; plasma, iv, 2.38 mg/kg): 1150 ng·h/mL
Cmax ([3]; plasma, iv, 2.38 mg/kg): 482 ng/mL
Tmax ([3]; plasma, iv, 2.38 mg/kg): 5 min
AUCt ([3]; escitalopram, brain, IN free drug, 2.38 mg/kg): 26.2 ^c µg.min/g
AUCt ([3]; escitalopram, brain, IV free drug, 2.38 mg/kg): 59.8 ^c µg.min/g
AUCt ([3]; escitalopram, lung, IN free drug, 2.38 mg/kg): 321 ^c µg.min/g
AUCt ([3]; escitalopram, lung, IN free drug, 2.38 mg/kg, listed as escitalopram): 168 µg·min/g
AUCt ([3]; escitalopram, lung, IV free drug, 2.38 mg/kg): 168 ^c µg.min/g
AUCt ([3]; escitalopram, lung, IV free drug, 2.38 mg/kg, listed as escitalopram): 321 µg·min/g
lung Cmax after free drug IN administration, times superior to BorNLC IN ([3]; escitalopram, lung, free IN vs BorNLC IN): 3.8 times
lung Cmax after free drug IN administration, times superior to IV ([3]; escitalopram, lung, free IN vs IV): 2.3 times

Fc1ccc([C@@H]2CCNC[C@H]2COc2ccc3c(c2)OCO3)cc1 [Paroxetine, Paroxetine hydrochloride]
tmax in the plasma [1]: 4.80 to 5.40 min
solubility at 24 h [2, 5]: 13800 ± 1260 µg/mL
solubility ([2]; in Labrasol): 24.0 ± 30.5 mg/mL
solubility at 24 h [2, 6]: 1070 ± 580 µg/mL
P-gp IC50 relative to therapeutic plasma concentrations (P-glycoprotein (P-gp); IC50 higher than therapeutic plasma concentrations, ref Hiemke et al., 2018): about 150 fold
P-gp inhibition IC50 (P-glycoprotein (P-gp); in vitro, ref Feng et al., 2008): 10 µg/mL
oral bioavailability [4]: 30 to 60%
Kp ([3]; brain/plasma, iv, 2.38 mg/kg, paroxetine, IV free drug, 2.38 mg/kg, read-out: AUCtbrain/AUCtplasma): 0.35
Kp ([3]; brain/plasma, other: intranasal (IN), 2.38 mg/kg, paroxetine, IN free drug, 2.38 mg/kg, read-out: AUCtbrain/AUCtplasma): 0.82
Cmax [3, 10]: 283 ng/g
Tmax [3, 10]: 120 min
Cmax [3, 11]: 2820 ng/g
Tmax [3, 11]: 60 min
AUC(0-t) [3, 12]: 1390 ng·h/mL
Cmax [3, 12]: 696 ng/mL
Kp ([3]; lung/plasma, iv, 2.38 mg/kg, paroxetine, IV free drug, 2.38 mg/kg, read-out: AUCtlung/AUCtplasma): 2.63
Kp ([3]; lung/plasma, other: intranasal, 2.38 mg/kg, paroxetine, IN free drug, 2.38 mg/kg, read-out: AUCtlung/AUCtplasma): 8.4
Tmax [3, 9]: 5 min
Tmax ([3]; plasma, iv, 2.38 mg/kg): 5 min
Cmax [3, 13]: 233 ng/g
Tmax [3, 13]: 120 min
Cmax [3, 14]: 1010 ng/g
Tmax [3, 14]: 30 min
AUC(0-t) [3, 15]: 1630 ng·h/mL
Cmax [3, 15]: 820 ng/mL
DTE (drug targeting efficiency) [3, 16]: 232%
DTP (direct transport percentage) [3, 16]: 56.9%
AUCtbrain/AUCtplasma ([3]; paroxetine, IN free drug, 2.38 mg/kg): 0.821
AUCtbrain/AUCtplasma ([3]; paroxetine, IV free drug, 2.38 mg/kg): 0.354
AUCt ([3]; paroxetine, brain, IN free drug, 2.38 mg/kg): 68.2 ^c µg min/g
higher brain exposure (given by AUCt) than that of IV injection ([3]; paroxetine, brain, IN vs IV): 49%
AUCt [3, 13]: 34.6 ^c µg min/g
AUCt ([3]; paroxetine, lung, IN free drug, 2.38 mg/kg): 699 ^c µg min/g
AUCt [3, 14]: 257 ^c µg min/g
